# Assay results from ChEMBL document CHEMBL1909046, “DrugMatrix in vitro pharmacology data”.
# Assays:
# Acetylcholinesterase = Acetylcholinesterase (Homo sapiens, UniProt P22303); experiment: DRUGMATRIX: Acetylcholinesterase enzyme inhibition (substrate: acetylthiocholine); format: cell-based, HEK293; conditions: hek293; Not Active = under 50% inhibition at 10 µM
# [1] = target: cGMP-specific 3',5'-cyclic phosphodiesterase (Homo sapiens, UniProt O76074); experiment: DRUGMATRIX: Phosphodiesterase PDE5 enzyme inhibition (substrate: [3H]cGMP + cGMP); format: tissue-based, Platelet; conditions: platelet; Not Active = under 50% inhibition at 10 µM
# [2] = target: T1, Alpha-2A adrenergic receptor (Homo sapiens, UniProt P08913); format: cell membranes, Sf9, Membrane; note: in other assays of this panel Not Active means under 50% inhibition at 10 µM
# T1 sequence (P08913 whole entry): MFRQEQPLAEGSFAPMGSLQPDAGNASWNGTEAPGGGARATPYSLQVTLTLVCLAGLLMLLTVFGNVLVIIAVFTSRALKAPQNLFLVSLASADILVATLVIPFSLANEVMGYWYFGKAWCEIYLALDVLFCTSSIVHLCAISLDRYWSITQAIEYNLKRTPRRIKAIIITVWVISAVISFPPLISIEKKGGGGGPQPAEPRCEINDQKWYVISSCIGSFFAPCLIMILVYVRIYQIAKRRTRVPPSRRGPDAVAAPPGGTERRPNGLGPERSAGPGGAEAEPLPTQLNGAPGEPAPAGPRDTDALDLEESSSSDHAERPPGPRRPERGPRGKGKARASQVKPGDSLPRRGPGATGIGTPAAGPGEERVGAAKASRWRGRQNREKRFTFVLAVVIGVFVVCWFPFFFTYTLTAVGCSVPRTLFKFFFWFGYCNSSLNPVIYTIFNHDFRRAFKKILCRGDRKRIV
# [3] = target: T2, Type-2 angiotensin II receptor (Homo sapiens, UniProt P50052); format: cell-based; conditions: cho-k1; note: in other assays of this panel Not Active means under 50% inhibition at 10 µM
# T2 sequence (P50052 whole entry): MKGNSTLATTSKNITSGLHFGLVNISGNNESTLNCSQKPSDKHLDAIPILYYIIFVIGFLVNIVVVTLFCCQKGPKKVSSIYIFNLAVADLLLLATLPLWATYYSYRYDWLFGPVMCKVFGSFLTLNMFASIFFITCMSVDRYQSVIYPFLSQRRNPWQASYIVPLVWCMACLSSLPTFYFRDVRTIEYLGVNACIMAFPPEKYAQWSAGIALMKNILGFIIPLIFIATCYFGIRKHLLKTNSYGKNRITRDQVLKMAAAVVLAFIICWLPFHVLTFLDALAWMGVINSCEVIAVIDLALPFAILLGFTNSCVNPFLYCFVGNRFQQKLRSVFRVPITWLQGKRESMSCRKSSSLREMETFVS
# [4] = target: Protein phosphatase 3 catalytic subunit alpha (Homo sapiens, UniProt Q08209); design: species or system Escherichia coli;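 note: inhibition of calcineurin (PP2B) enzyme activity, measured with DiFMUP as the substrate; in other assays of this panel Not Active means under 50% inhibition at 10 µM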
# [5] = target: T3, Vasoactive intestinal polypeptide receptor 1 (Homo sapiens, UniProt P32241); format: cell membranes, Membrane; conditions: ht-29; note: in other assays of this panel Not Active means under 50% inhibition at 10 µM
# T3 sequence (P32241 whole entry): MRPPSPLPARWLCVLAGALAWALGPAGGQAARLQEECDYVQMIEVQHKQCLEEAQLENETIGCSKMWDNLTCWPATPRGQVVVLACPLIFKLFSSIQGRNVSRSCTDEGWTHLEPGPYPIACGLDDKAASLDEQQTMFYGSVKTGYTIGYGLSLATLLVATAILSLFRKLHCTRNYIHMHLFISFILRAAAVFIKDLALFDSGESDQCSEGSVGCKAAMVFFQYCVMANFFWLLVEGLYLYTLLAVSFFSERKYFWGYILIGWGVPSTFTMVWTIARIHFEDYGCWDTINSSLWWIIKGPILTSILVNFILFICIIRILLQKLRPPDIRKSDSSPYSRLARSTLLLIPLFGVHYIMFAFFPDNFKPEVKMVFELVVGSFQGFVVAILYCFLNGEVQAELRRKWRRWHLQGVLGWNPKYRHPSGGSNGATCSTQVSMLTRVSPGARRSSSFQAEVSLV
# [6] = DRUGMATRIX: Leukotriene, BLT (LTB4) radioligand binding (ligand: [3H]LTB4); format: cell membranes, Membrane; conditions: u-937; Not Active = under 50% inhibition at 10 µM
# Chain of Acetylcholinesterase (P22303 whole entry): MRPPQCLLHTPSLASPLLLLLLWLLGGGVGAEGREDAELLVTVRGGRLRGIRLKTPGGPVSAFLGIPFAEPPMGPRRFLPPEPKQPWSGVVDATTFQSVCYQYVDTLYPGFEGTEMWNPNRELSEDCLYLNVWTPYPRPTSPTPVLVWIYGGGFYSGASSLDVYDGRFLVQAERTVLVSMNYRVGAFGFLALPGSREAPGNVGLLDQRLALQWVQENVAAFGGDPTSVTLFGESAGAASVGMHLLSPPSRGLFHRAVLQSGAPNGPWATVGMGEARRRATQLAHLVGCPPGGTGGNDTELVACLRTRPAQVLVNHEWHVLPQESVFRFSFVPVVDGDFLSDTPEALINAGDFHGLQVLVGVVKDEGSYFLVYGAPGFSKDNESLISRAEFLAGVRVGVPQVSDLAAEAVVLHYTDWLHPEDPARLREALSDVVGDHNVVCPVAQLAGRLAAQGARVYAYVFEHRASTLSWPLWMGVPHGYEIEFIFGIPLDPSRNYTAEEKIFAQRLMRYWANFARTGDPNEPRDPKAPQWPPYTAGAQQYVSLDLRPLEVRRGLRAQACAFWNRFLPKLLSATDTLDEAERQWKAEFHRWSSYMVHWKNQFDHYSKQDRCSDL
smiles,measurement,setting,value
Cn1c(=O)c2c(ncn2CC(O)CO)n(C)c1=O (stereo unspecified) [DYPHYLLINE],IC50,Acetylcholinesterase,Not Active
same,IC50,[1],Not Active
same,IC50,[2]; sf9,Not Active
same,IC50,[3],Not Active
same,IC50,[4],Not Active
same,IC50,[5],Not Active
same,IC50,[6],Not Active
same,Ki,[6],Not Active
O=C(O)c1cccnc1Nc1cccc(C(F)(F)F)c1 [NIFLUMIC ACID],IC50,Acetylcholinesterase,Not Active
same,IC50,[1],Not Active
same,IC50,[2]; sf9,Not Active
same,IC50,[3],Not Active
same,IC50,[4],Not Active
same,IC50,[5],Not Active
same,IC50,[6],Not Active
same,Ki,[6],Not Active
CC(C)c1cccc(C(C)C)c1O [PROPOFOL],IC50,Acetylcholinesterase,Not Active
same,IC50,[1],Not Active
same,IC50,[2]; sf9,Not Active
same,IC50,[3],Not Active
same,IC50,[4],Not Active
same,IC50,[5],Not Active
same,IC50,[6],Not Active
same,Ki,[6],Not Active
COC(=O)Nc1nc2ccc(C(=O)c3cccs3)cc2[nH]1 [NOCODAZOLE],IC50,Acetylcholinesterase,Not Active
same,IC50,[1],Not Active
same,IC50,[2]; sf9,Not Active
same,IC50,[3],Not Active
same,IC50,[4],Not Active
same,IC50,[5],Not Active
same,IC50,[6],Not Active
same,Ki,[6],Not Active
N=C(N)NC(=O)Cc1c(Cl)cccc1Cl [GUANFACINE],IC50,Acetylcholinesterase,Not Active
same,IC50,[1],Not Active
same,IC50,[3],Not Active
same,IC50,[4],Not Active
same,IC50,[5],Not Active
same,IC50,[6],Not Active
same,Ki,[6],Not Active
CC(C)NCC(O)COc1cccc2[nH]ccc12 (stereo unspecified) [PINDOLOL],IC50,Acetylcholinesterase,Not Active
same,IC50,[1],Not Active
same,IC50,[2]; sf9,Not Active
same,IC50,[3],Not Active
same,IC50,[4],Not Active
same,IC50,[5],Not Active
same,IC50,[6],Not Active
same,Ki,[6],Not Active
CC(=O)[C@@]1(O)CC[C@H]2[C@@H]3CCC4=CC(=O)CC[C@]4(C)[C@H]3CC[C@@]21C [HYDROXYPROGESTERONE],IC50,Acetylcholinesterase,Not Active
same,IC50,[1],Not Active
same,IC50,[2]; sf9,Not Active
same,IC50,[3],Not Active
same,IC50,[4],Not Active
same,IC50,[5],Not Active
same,IC50,[6],Not Active
same,Ki,[6],Not Active
CC(=O)O[C@H]1C(=O)[C@@]2(C)[C@H]([C@H](OC(=O)c3ccccc3)[C@]3(O)C[C@H](OC(=O)[C@H](O)[C@@H](NC(=O)c4ccccc4)c4ccccc4)C(C)=C1C3(C)C)[C@]1(OC(C)=O)CO[C@@H]1C[C@@H]2O [PACLITAXEL],IC50,Acetylcholinesterase,Not Active
same,IC50,[1],Not Active
same,IC50,[2]; sf9,Not Active
same,IC50,[3],Not Active
same,IC50,[4],Not Active
same,IC50,[5],Not Active
same,IC50,[6],Not Active
same,Ki,[6],Not Active
COc1ccc2cc3[n+](cc2c1OC)CCc1cc2c(cc1-3)OCO2.[Cl-] [BERBERINE CHLORIDE],IC50,[1],Not Active
same,IC50,[2]; sf9,Not Active
same,IC50,[3],Not Active
same,IC50,[4],Not Active
same,IC50,[5],Not Active
same,IC50,[6],Not Active
same,Ki,[6],Not Active
COc1ccc2c3c1O[C@H]1C[C@@H](O)C=C[C@@]31CCN(C)C2 [GALANTAMINE],IC50,[1],Not Active
same,IC50,[2]; sf9,Not Active
same,IC50,[3],Not Active
same,IC50,[4],Not Active
same,IC50,[5],Not Active
same,IC50,[6],Not Active
same,Ki,[6],Not Active
COc1cc(N)c(Cl)cc1C(=O)NC1CCN(CCCOc2ccc(F)cc2)CC1OC (stereo unspecified) [CISAPRIDE],IC50,Acetylcholinesterase,Not Active
same,IC50,[1],Not Active
same,IC50,[3],Not Active
same,IC50,[4],Not Active
same,IC50,[5],Not Active
same,IC50,[6],Not Active
same,Ki,[6],Not Active
Brc1c(NC2=NCCN2)ccc2nccnc12 [BRIMONIDINE],IC50,Acetylcholinesterase,Not Active
same,IC50,[1],Not Active
same,IC50,[3],Not Active
same,IC50,[4],Not Active
same,IC50,[5],Not Active
same,IC50,[6],Not Active
same,Ki,[6],Not Active
COc1cc2nc(N3CCN(C(=O)c4ccco4)CC3)nc(N)c2cc1OC [PRAZOSIN],IC50,Acetylcholinesterase,Not Active
same,IC50,[1],Not Active
same,IC50,[3],Not Active
same,IC50,[4],Not Active
same,IC50,[5],Not Active
same,IC50,[6],Not Active
same,Ki,[6],Not Active
Oc1c(Cl)cc(Cl)c(Cl)c1Cc1c(O)c(Cl)cc(Cl)c1Cl [HEXACHLOROPHENE],IC50,[1],Not Active
same,IC50,[2]; read-out: IC50,5.5 µM
same,Ki,[2]; read-out: Ki,2.06 µM
same,IC50,[3],Not Active
same,IC50,[4],Not Active
same,IC50,[5],Not Active
same,IC50,[6],Not Active
same,Ki,[6],Not Active
